Source: patent US11691969B2, “Pyridazinones as PARP7 inhibtors” (Ribon Therapeutics, Inc., priority 2019, dated 2023)

The molecules below were run against PARP7 (Homo sapiens (Human), UniProt Q7Z3E1) (assay: TR-FRET assay: displacement of biotinylated Probe A from the TIPARP active site (Enzymatic Assay for Inhibition of PARP7)). Settings: TIPARP 6 nM, Probe A 2 nM, 25° C.
Format: binding
Method: Example A. Enzymatic Assay for Inhibition of PARP7
Displacement of Probe A, a biotinylated probe binding to the TIPARP active site, was measured using a time-resolved fluorescence energy transfer (TR-FRET) assay. 20 nL of a dose response curve of each test compound was spotted in black 384-well polystyrene proxiplates (Perkin Elmer) using a Mosquito (TTP Labtech). Reactions were performed in a 8 μl volume by adding 6 μL of TIPARP and Probe A in assay buffer (20 mM HEPES pH=8, 100 mM NaCl, 0.1% bovine serum albumin, 2 mM DTT and 0.002% Tween20), incubating with test compound at 25° C. for 30 min, then adding 2 μL of ULight-anti 6×His and LANCE Eu-W1024 labeled streptavidin (Perkin Elmer). The final concentrations of TIPARP and Probe A were 6 nM and 2 nM, respectively. The final concentration of ULight-anti 6×His and LANCE Eu-W1024 labeled streptavidin were 4 nM and 0.25 nM, respectively. Reactions were incubated at 25° C. for an additional 30 min, then read on an Envision platereader equipped with a LANCE/DELFIA top mirror (Perkin Elmer) using excitation of 320 nm and emission of 615 nm and […] with a […]. The ratio of the 665/615 nm emission were calculated for each well to determine the amount of complex of TIPARP and Probe Ain each well. Control wells containing a negative control of 0.25% DMSO vehicle or a positive control of 100 μM 5-(5-(piperidin-4-yloxy)isoindolin-2-yl)-4-(trifluoromethyl)pyridazin-3(2H)-one were used to calculate the % inhibition as described below:
[formula] where TRFcmpd is the TR-FRET ratio from the compound treated well, TRFmin is the TR-FRET ratio from the 5-(5-(piperidin-4-yloxy)isoindolin-2-yl)-4-(trifluoromethyl)pyridazin-3(2H)-one—treated positive control well and TRFmax is the TR-FRET ratio from the DMSO-treated negative control well. The % inhibition values were plotted as a function of compound concentration and the following 4-parameter fit was applied to derive the IC50 values:
[formula] where top and bottom are normally allowed to float, but may be fixed at 100 or 0 respectively in a 3-parameter fit. The Hill Coefficient is normally allowed to float but may also be fixed at 1 in a 3-parameter fit. Y is the % inhibition and X is the compound concentration. Synthesis of Probe A

Chain of PARP7 (Q7Z3E1 whole entry): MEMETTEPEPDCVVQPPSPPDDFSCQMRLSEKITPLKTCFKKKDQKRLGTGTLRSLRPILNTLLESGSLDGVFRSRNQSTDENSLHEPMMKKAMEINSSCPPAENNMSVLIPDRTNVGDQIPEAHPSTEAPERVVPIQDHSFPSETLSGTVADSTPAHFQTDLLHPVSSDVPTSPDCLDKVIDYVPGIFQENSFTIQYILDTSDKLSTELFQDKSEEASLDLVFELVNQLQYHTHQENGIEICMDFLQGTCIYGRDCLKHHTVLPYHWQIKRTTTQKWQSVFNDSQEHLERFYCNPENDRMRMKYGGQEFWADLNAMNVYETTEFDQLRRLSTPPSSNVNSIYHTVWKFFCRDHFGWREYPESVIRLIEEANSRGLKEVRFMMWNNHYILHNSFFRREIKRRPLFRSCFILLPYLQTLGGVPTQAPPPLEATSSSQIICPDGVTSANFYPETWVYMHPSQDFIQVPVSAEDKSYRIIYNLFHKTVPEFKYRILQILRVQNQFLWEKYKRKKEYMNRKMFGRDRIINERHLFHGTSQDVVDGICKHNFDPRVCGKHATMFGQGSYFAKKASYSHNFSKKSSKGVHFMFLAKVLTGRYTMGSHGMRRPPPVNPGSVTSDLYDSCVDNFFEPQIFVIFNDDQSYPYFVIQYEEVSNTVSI

Row | SMILES | IC50
1 | C[C@@H](CN(C)C1CCN(C2CCN(c3ncc(C(F)(F)F)cn3)CC2)C1=O)Nc1cn[nH]c(=O)c1C(F)(F)F (stereo partly drawn) [Example 29, 5-(((S)-1-(methyl(2-oxo-1-(1-(5-(trifluoromethyl)pyrimidin-2-yl)piperidin-4-yl)pyrrolidin-3-yl)amino)propan-2-yl)amino)-4-(trifluoromethyl)pyridazin-3(2H)-one] | < 100 nM
2 | C[C@@H](COC1CCN(C2CCN(c3ccc(C#N)cn3)CC2)C1=O)Oc1cn[nH]c(=O)c1C(F)(F)F (stereo partly drawn) [Example 30, 6-(4-(2-oxo-3-((S)-2-((6-oxo-5-(trifluoromethyl)-1,6-dihydropyridazin-4-yl)oxy)propoxy)pyrrolidin-1-yl)piperidin-1-yl)nicotinonitrile] | < 100 nM
3 | C[C@@H](CO[C@H]1CCN(C2CCN(c3cnc(C(F)(F)F)cn3)CC2)C1=O)Oc1cn[nH]c(=O)c1C(F)(F)F [Example 31A, 5-(((S)-1-(((S)-2-oxo-1-(1-(5-(trifluoromethyl)pyrazin-2-yl)piperidin-4-yl)pyrrolidin-3-yl)oxy)propan-2-yl)oxy)-4-(trifluoromethyl)pyridazin-3(2H)-one] | < 100 nM
4 | C[C@@H](CO[C@@H]1CCN(C2CCN(c3cnc(C(F)(F)F)cn3)CC2)C1=O)Oc1cn[nH]c(=O)c1C(F)(F)F [Example 31B, 5-(((S)-1-(((R)-2-oxo-1-(1-(5-(trifluoromethyl)pyrazin-2-yl)piperidin-4-yl)pyrrolidin-3-yl)oxy)propan-2-yl)oxy)-4-(trifluoromethyl)pyridazin-3(2H)-one] | 100 to 1000 nM
5 | C[C@@H](CO[C@@H]1CCN(C2CCN(c3ncc(C(F)(F)F)cn3)CC2)C1=O)Nc1cn[nH]c(=O)c1Br [Example 32, 4-bromo-5-(((S)-1-(((R)-2-oxo-1-(1-(5-(trifluoromethyl)pyrimidin-2-yl)piperidin-4-yl)pyrrolidin-3-yl)oxy)propan-2-yl)amino)pyridazin-3(2H)-one] | < 100 nM
6 | C[C@@H](CO[C@H]1CCCN(C2CCN(c3ncc(C(F)(F)F)cn3)CC2)C1=O)Nc1cn[nH]c(=O)c1C(F)(F)F [Example 34A, (S)-3-((S)-2-((6-oxo-5-(trifluoromethyl)-1,6-dihydropyridazin-4-yl)amino)propoCyxy)-1′-(5-(trifluoromethyl)pyrimidin-2-yl)-[1,4′-bipiperidin]-2-one] | < 100 nM
7 | C[C@@H](CO[C@@H]1CCCN(C2CCN(c3ncc(C(F)(F)F)cn3)CC2)C1=O)Nc1cn[nH]c(=O)c1C(F)(F)F [Example 34B, (R)-3-((S)-2-((6-oxo-5-(trifluoromethyl)-1,6-dihydropyridazin-4-yl)amino)propoxy)-1′-(5-(trifluoromethyl)pyrimidin-2-yl)-[1,4′-bipiperidin]-2-one] | < 100 nM
8 | C[C@@H](CO[C@@H]1C(=O)N(C2CCN(c3ncc(C(F)(F)F)cn3)CC2)CC1(C)C)Nc1cn[nH]c(=O)c1C(F)(F)F [Example 35A, 5-(((S)-1-(((S)-4,4-dimethyl-2-oxo-1-(1-(5-(trifluoromethyl)pyrimidin-2-yl)piperidin-4-yl)pyrrolidin-3-yl)oxy)propan-2-yl)amino)-4-(trifluoromethyl)pyridazin-3(2H)-one] | ≥ 1000 nM
9 | C[C@@H](CO[C@H]1C(=O)N(C2CCN(c3ncc(C(F)(F)F)cn3)CC2)CC1(C)C)Nc1cn[nH]c(=O)c1C(F)(F)F [Example 35B, 5-(((S)-1-(((R)-4,4-dimethyl-2-oxo-1-(1-(5-(trifluoromethyl)pyrimidin-2-yl)piperidin-4-yl)pyrrolidin-3-yl)oxy)propan-2-yl)amino)-4-(trifluoromethyl)pyridazin-3(2H)-one] | < 100 nM
10 | N#Cc1ccc(N2CCC(N3CC[C@@H](OCCNc4cn[nH]c(=O)c4C(F)(F)F)C3=O)CC2)nc1 [Example 36A] | < 100 nM
11 | N#Cc1ccc(N2CCC(N3CC[C@H](OCCNc4cn[nH]c(=O)c4C(F)(F)F)C3=O)CC2)nc1 [Example 36B] | < 100 nM
12 | C[C@@H]1CN(C2CCN(c3ncc(C(F)(F)F)cn3)CC2)C(=O)[C@H]1OC[C@H](C)Nc1cn[nH]c(=O)c1C(F)(F)F [Example 37A, 5-(((S)-1-(((3S,4R)-4-methyl-2-oxo-1-(1-(5-(trifluoromethyl)pyrimidin-2-yl)piperidin-4-yl)pyrrolidin-3-yl)oxy)propan-2-yl)amino)-4-(trifluoromethyl)pyridazin-3(2H)-one] | ≥ 1000 nM
13 | C[C@@H](CO[C@H]1C(=O)N(C2CCN(c3ncc(C(F)(F)F)cn3)CC2)C[C@@H]1C)Nc1cn[nH]c(=O)c1C(F)(F)F [Example 37B, 5-(((S)-1-(((3R,4S)-4-methyl-2-oxo-1-(1-(5-(trifluoromethyl)pyrimidin-2-yl)piperidin-4-yl)pyrrolidin-3-yl)oxy)propan-2-yl)amino)-4-(trifluoromethyl)pyridazin-3(2H)-one] | < 100 nM
14 | C[C@@H](CO[C@@H]1CCN(C2CCN(c3ncc(F)cn3)CC2)C1=O)Nc1cn[nH]c(=O)c1C(F)(F)F [Example 42, 5-(((S)-1-(((R)-1-(1-(5-fluoropyrimidin-2-yl)piperidin-4-yl)-2-oxopyrrolidin-3-yl)oxy)propan-2-yl)amino)-4-(trifluoromethyl)pyridazin-3(2H)-one] | < 100 nM
15 | C[C@@H](CO[C@@H]1CCN([C@H]2[C@@H]3CN(c4ncc(C(F)(F)F)cn4)C[C@@H]32)C1=O)Nc1cn[nH]c(=O)c1C(F)(F)F [Example 43, 5-(((S)-1-(((R)-2-oxo-1-((1R,5S,6s)-3-(5-(trifluoromethyl)pyrimidin-2-yl)-3-azabicyclo[3.1.0]hexan-6-yl)pyrrolidin-3-yl)oxy)propan-2-yl)amino)-4-(trifluoromethyl)pyridazin-3(2H)-one] | < 100 nM
16 | Cc1cnc(N2CCC(N3CC[C@@H](OC[C@H](C)Nc4cn[nH]c(=O)c4C(F)(F)F)C3=O)CC2)nc1 [Example 44, 5-(((S)-1-(((R)-1-(1-(5-methylpyrimidin-2-yl)piperidin-4-yl)-2-oxopyrrolidin-3-yl)oxy)propan-2-yl)amino)-4-(trifluoromethyl)pyridazin-3(2H)-one] | < 100 nM
17 | C[C@@H](CO[C@@H]1CCN(C2CCN(c3cnc(C(F)(F)F)cn3)CC2)C1=O)Oc1cn[nH]c(=O)c1Br [Example 46B, 4-bromo-5-(((S)-1-(((R)-2-oxo-1-(1-(5-(trifluoromethyl)pyrazin-2-yl)piperidin-4-yl)pyrrolidin-3-yl)oxy)propan-2-yl)oxy)pyridazin-3(2H)-one] | < 100 nM
18 | C[C@@H](CO[C@H]1CCN(C2CCN(c3ncc(C(F)(F)F)cn3)CC2)C1=O)Oc1cn[nH]c(=O)c1Cl [Example 47A, 4-chloro-5-(((S)-1-(((S)-2-oxo-1-(1-(5-(trifluoromethyl)pyrimidin-2-yl)piperidin-4-yl)pyrrolidin-3-yl)oxy)propan-2-yl)oxy)pyridazin-3(2H)-one] | 100 to 1000 nM
19 | C[C@@H](CO[C@@H]1CCN(C2CCN(c3ncc(C(F)(F)F)cn3)CC2)C1=O)Oc1cn[nH]c(=O)c1Cl [Example 47B, 4-chloro-5-(((S)-1-(((R)-2-oxo-1-(1-(5-(trifluoromethyl)pyrimidin-2-yl)piperidin-4-yl)pyrrolidin-3-yl)oxy)propan-2-yl)oxy)pyridazin-3(2H)-one] | < 100 nM
20 | C[C@@H](CO[C@@H]1CCN(C2CCN(c3ccc(C#N)cn3)CC2)C1=O)Oc1cn[nH]c(=O)c1Br [Example 48A] | < 100 nM
21 | C[C@@H](CO[C@H]1CCN(C2CCN(c3ccc(C#N)cn3)CC2)C1=O)Oc1cn[nH]c(=O)c1Br [Example 48B] | < 100 nM
22 | Cc1cnc(N2CCC(N3CC[C@H](OC[C@H](C)Oc4cn[nH]c(=O)c4C(F)(F)F)C3=O)CC2)nc1 [Example 49A, 5-(((S)-1-(((S)-1-(1-(5-methylpyrimidin-2-yl)piperidin-4-yl)-2-oxopyrrolidin-3-yl)oxy)propan-2-yl)oxy)-4-(trifluoromethyl)pyridazin-3(2H)-one] | 100 to 1000 nM
23 | Cc1cnc(N2CCC(N3CC[C@@H](OC[C@H](C)Oc4cn[nH]c(=O)c4C(F)(F)F)C3=O)CC2)nc1 [Example 49B, 5-(((S)-1-(((R)-1-(1-(5-methylpyrimidin-2-yl)piperidin-4-yl)-2-oxopyrrolidin-3-yl)oxy)propan-2-yl)oxy)-4-(trifluoromethyl)pyridazin-3(2H)-one] | < 100 nM
24 | COC[C@@H](CO[C@H]1CCN(C2CCN(c3ccc(C#N)cn3)CC2)C1=O)Oc1cn[nH]c(=O)c1C(F)(F)F [Example 50A, 6-(4-((S)-3-((S)-3-methoxy-2-((6-oxo-5-(trifluoromethyl)-1,6-dihydropyridazin-4-yl)oxy)propoxy)-2-oxopyrrolidin-1-yl)piperidin-1-yl)nicotinonitrile] | 100 to 1000 nM
